The results in this text go back to article PMC5925831, “Enhancement of the catalytic activity of Isopentenyl diphosphate isomerase (IDI) from Saccharomyces cerevisiae through random and site-directed mutagenesis” (Microbial Cell Factories, 2018).

SMILES strings stand for the structures.

Assay [1] has as its target T1, IDI (isopentenyl diphosphate isomerase from Saccharomyces cerevisiae) (Saccharomyces cerevisiae, UniProt P15496, Y195F/W256C, form not given).
T1 construct: gene IDI1
The conditions noted are these: 50 mM MOPS, 20 mM MgCl2, 5% glycerol, pH 7.5, 30 °C (activity assay); substrate range printed as 1–1000 mmol/L. An excerpt: (§1) GC of isoprene released from DMAPP by acid and heat; double-reciprocal plot on IDI (isopentenyl diphosphate isomerase from Saccharomyces cerevisiae)

The target in assay [2] is T2, IDI (isopentenyl diphosphate isomerase from Saccharomyces cerevisiae) (Saccharomyces cerevisiae, UniProt P15496).
T2 construct: gene IDI1
The conditions noted are these: 50 mM MOPS, 20 mM MgCl2, 5% glycerol, pH 7.5, 30 °C (activity assay); substrate range printed as 1–1000 mmol/L.
From the text: as §1

T1 sequence (P15496 2-288 Y195F/W256C, form open): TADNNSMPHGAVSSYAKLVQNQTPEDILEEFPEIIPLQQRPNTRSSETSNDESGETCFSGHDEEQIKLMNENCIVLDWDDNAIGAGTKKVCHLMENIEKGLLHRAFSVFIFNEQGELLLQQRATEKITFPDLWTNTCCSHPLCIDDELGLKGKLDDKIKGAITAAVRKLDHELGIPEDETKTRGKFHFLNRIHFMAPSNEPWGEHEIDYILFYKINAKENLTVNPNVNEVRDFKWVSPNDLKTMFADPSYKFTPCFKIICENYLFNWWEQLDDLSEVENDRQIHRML
T2 sequence (P15496 2-288): as the sequence (P15496 2-288 Y195F/W256C, form open) above, with F194Y, C255W counted along it

`C=C(C)CCO[P@@](=O)(O)OP(=O)(O)O` [isopentenylpyrophosphate]: the Km in assay [1] is 37.6 ± 0.17 µM; in assay [2] it was 41.5 ± 0.39 µM.

In general, Km refers to the concentration of substrate that gives half-maximal velocity.
